System: hepatocytes
Assay: Seq-Well scRNA-Seq of hepatocytes after APAP overdose (signature scores, DEG vs untreated)
Assay type: in vivo, mouse
Conditions: A24 vs untreated (UT)

CC(=O)Nc1ccc(O)cc1 [APAP, acetaminophen]
avg_logFC Ces3a: −0.3687 | avg_logFC Ces1d: −0.4289 | avg_logFC Cfh: 0.4009 | avg_logFC Cfi: 0.2516 | avg_logFC Chchd2: −0.3949 | avg_logFC Clpx: −0.4047 | avg_logFC Cltc: 0.4381 | avg_logFC Cmah: 0.3616 | avg_logFC Cmbl: −0.3124 | avg_logFC Cml1: −0.3269 | avg_logFC Cml2: 0.2654 | avg_logFC Copa: 0.3451 | avg_logFC Cox4i1: −0.4542 | avg_logFC Cox5b: −0.3378 | avg_logFC Cox6c: −0.5028 | avg_logFC Cox7a2: −0.3635 | avg_logFC Cp: 0.3174 | avg_logFC Cpb2: 0.3222 | avg_logFC Cps1: 0.3245 | avg_logFC Creld2: 0.6087 | avg_logFC Csad: −0.5313 | avg_logFC Csde1: 0.3269 | avg_logFC Cth: −0.5109 | avg_logFC Ctsc: 0.3004 | avg_logFC Cxcl1: 0.4498 | avg_logFC Cyb5: −0.7048 | avg_logFC Cyb5r3: 0.339 | avg_logFC Cyp4a10: −0.7422 | avg_logFC Dcxr: −0.4107 | avg_logFC Ddt: −0.4224 | avg_logFC Dhcr24: 0.4238 | avg_logFC Dnajc3: 0.4564 | avg_logFC Dnajc12: 0.3221 | avg_logFC Dstn: 0.3243 | avg_logFC Ech1: −0.4291 | avg_logFC Eef1a1: 0.4393 | avg_logFC Eef2: 0.2701 | avg_logFC Efna1: 0.3361 | avg_logFC Egfr: 0.505 | avg_logFC Eif4g1: 0.3108 | avg_logFC Eif4g2: 0.466 | avg_logFC Elovl2: 0.4522 | avg_logFC Elovl3: −0.676 | avg_logFC Ephx2: −0.3693 | avg_logFC Etnk1: 0.3521 | avg_logFC Etnppl: −0.4283 | avg_logFC Fabp2: −0.3922 | avg_logFC Fdx1: −0.3447 | avg_logFC Fga: 0.8285 | avg_logFC Fgb: 0.745 | avg_logFC Fgg: 0.6805 | avg_logFC Fgl1: 0.8649 | avg_logFC Fn1: 0.6996 | avg_logFC Fndc3b: 0.3485 | avg_logFC Fos: 0.432 | avg_logFC Fxyd1: −0.3118 | avg_logFC Gadd45g: −0.614 | avg_logFC Gas5: −0.3362 | avg_logFC Gchfr: −0.3869 | avg_logFC Gjb2: 0.3911 | avg_logFC Glud1: 0.451 | avg_logFC Gm4076: −0.3255 | avg_logFC Gm5096: −0.3631 | avg_logFC Gm13775: −1.032 | avg_logFC Gm15564: 1.821 | avg_logFC Gm24270: 0.268 | avg_logFC Gm24601: 0.9844 | avg_logFC Gm26917: 0.8237 | avg_logFC Gm26924: 1.419 | avg_logFC Gnmt: −0.4604 | avg_logFC Gpx1: −0.508 | avg_logFC Grip2: 0.8779 | avg_logFC Gsta3: −0.6694 | avg_logFC Hamp: −0.8261 | avg_logFC Hao1: 0.323 | avg_logFC Hbb-bs: 1.043 | avg_logFC Hc: 0.3679 | avg_logFC Hdlbp: 0.5651 | avg_logFC Hint1: −0.4737 | avg_logFC Hint2: −0.3702 | avg_logFC Hmgcs2: −0.3173 | avg_logFC Hnf4a: 0.4549 | avg_logFC Hook1: 0.3274 | avg_logFC Hp: 0.4313 | avg_logFC Hpd: −0.3133 | avg_logFC Hs3st3b1: 0.343 | avg_logFC Hsd3b7: −0.3953 | avg_logFC Hsp90b1: 0.5342 | avg_logFC Hspa5: 0.6105 | avg_logFC Hspa8: −0.36 | avg_logFC Hspa13: 0.3548 | avg_logFC Hyou1: 0.8465 | avg_logFC Ibtk: 0.3311 | avg_logFC Igfbp1: −0.3162 | avg_logFC Igfbp2: −0.3451 | avg_logFC Iigp1: 0.4542 | avg_logFC Il6st: 0.3335 | avg_logFC Il13ra1: 0.303 | avg_logFC Inmt: −0.4435 | avg_logFC Insig1: 0.4655 | avg_logFC Ipo7: 0.2592 | avg_logFC Itih2: 0.2987 | avg_logFC Itih3: 0.4929 | avg_logFC Itih4: 0.5251 | avg_logFC Khk: −0.2976 | avg_logFC Kmo: 0.3022 | avg_logFC Kng1: 0.2658 | avg_logFC Lars2: 1.711 | avg_logFC Lman1: 0.2986 | avg_logFC Lpgat1: 0.3946 | avg_logFC Lrg1: 0.4368 | avg_logFC Lrp1: 0.5051 | avg_logFC Lrrc59: 0.3181 | avg_logFC Manf: 0.4689 | avg_logFC Mlec: 0.3246 | avg_logFC Mpc1: −0.2818 | avg_logFC Mtus1: 0.3621 | avg_logFC Mug2: 0.3704 | avg_logFC Mup3: −0.8062 | avg_logFC Mup4: −1.087 | avg_logFC Mup5: −1.371 | avg_logFC Mup6: −1.678 | avg_logFC Mup8: −0.6133 | avg_logFC Mup9: −1.847 | avg_logFC Mup11: −1.611 | avg_logFC Mup13: −0.6949 | avg_logFC Mup15: −1.235 | avg_logFC Mup16: −1.019 | avg_logFC Mup17: −1.8 | avg_logFC Mup18: −1.727 | avg_logFC Mup19: −1.699 | avg_logFC Mup20: −0.2819 | avg_logFC Mup21: −0.6977 | avg_logFC Myh9: 0.6391 | avg_logFC Nab1: 0.3342 | avg_logFC Nars: 0.3532 | avg_logFC Ndufa4: −0.4433 | avg_logFC Ndufb2: −0.3412 | avg_logFC Ndufb4: −0.3251 | avg_logFC Ndufb11: −0.4275 | avg_logFC Ndufs6: −0.3592 | avg_logFC Nedd4: 0.3774 | avg_logFC Nr1d2: 0.4306 | avg_logFC Nr5a2: 0.322 | avg_logFC Oat: −0.5212 | avg_logFC Oaz1: −0.3748 | avg_logFC Orm1: 0.3651 | avg_logFC Orm2: 0.2715 | avg_logFC P4hb: 0.4052 | avg_logFC Pdcd4: 0.4882 | avg_logFC Pdia3: 0.5938 | avg_logFC Pdia4: 0.4882 | avg_logFC Pdia6: 0.3365 | avg_logFC Pgrmc1: 0.3502 | avg_logFC Plg: 0.2617 | avg_logFC Pon1: −0.3227 | avg_logFC Prdx1: −0.2677 | avg_logFC Prg4: 0.4306 | avg_logFC Prkd3: 0.3665 | avg_logFC Pten: 0.3559 | avg_logFC Pzp: 0.416 | avg_logFC Qsox1: 0.3424 | avg_logFC Rab1: 0.3526 | avg_logFC Rdh7: −0.269 | avg_logFC Rdx: 0.3736 | avg_logFC Retsat: −0.3658 | avg_logFC Rnase4: 0.5178 | avg_logFC Rpn1: 0.4124 | avg_logFC Rps2: −0.3845 | avg_logFC Rps27l: −0.5485 | avg_logFC Rrbp1: 0.3069 | avg_logFC Rsp14: −0.2923 | avg_logFC S100a1: −0.3762 | avg_logFC Saa1: 0.5582 | avg_logFC Saa2: 0.9645 | avg_logFC Saa4: 0.3755 | avg_logFC Sar1b: −0.3176 | avg_logFC Sc5d: 0.345 | avg_logFC Scd1: 0.7267 | avg_logFC Sds: −0.407 | avg_logFC Sec61a1: 0.3139 | avg_logFC Sel1l: 0.336 | avg_logFC Selenbp2: −0.3833 | avg_logFC Sephs2: 0.89 | avg_logFC Sepp1: 0.4486 | avg_logFC Serp1: 0.3124 | avg_logFC Serpina1a: −0.6752 | avg_logFC Serpina1b: −0.3018 | avg_logFC Serpina1c: −0.4026 | avg_logFC Serpina1e: −0.2843 | avg_logFC Serpina3c: −0.4089 | avg_logFC Serpina3n: 0.4137 | avg_logFC Serpina10: 0.565 | avg_logFC Serpina1d: −0.494 | avg_logFC Slc3a1: 0.341 | avg_logFC Slc7a2: 0.3526 | avg_logFC Slc38a4: 0.2637 | avg_logFC Snord118: 0.3914 | avg_logFC Sod1: −0.3036 | avg_logFC Sparcl1: −0.2536 | avg_logFC Spcs3: 0.3942 | avg_logFC Ssr1: 0.3278
